Test results published in paper PMC11277476, “Synthesis and Biological Evaluation of Novel 2-Aroyl Benzofuran-Based Hydroxamic Acids as Antimicrotubule Agents” (International Journal of Molecular Sciences, 2024).

What was measured:
[1] = system: HeLa cells; assay: In vitro growth inhibition (resazurin, 72 h), HeLa; format: cell-based; conditions: Homo sapiens, concentration inhibiting tumor cell proliferation by 50%, mean ± SE
[2] = system: MDA-MB-231 cells; assay: In vitro growth inhibition (resazurin, 72 h), MDA-MB-231; format: cell-based; conditions: Homo sapiens, mean ± SE
[3] = system: A549 cells; assay: In vitro growth inhibition (resazurin, 72 h), A549; format: cell-based; conditions: Homo sapiens, mean ± SE
[4] = system: HT-29 cells; assay: In vitro growth inhibition (resazurin, 72 h), HT-29; format: cell-based; conditions: Homo sapiens, mean ± SE
[5] = system: MCF-7 cells; assay: In vitro growth inhibition (resazurin, 72 h), MCF-7; format: cell-based; conditions: Homo sapiens, MCF7, mean ± SE
[6] = system: bovine brain tubulin; assay: Inhibition of tubulin polymerization (turbidimetric); format: biochemical; conditions: tubulin at 10 μM; 20 min incubation at 30 °C; read-out: Tubulin Assembly IC50 ± SD
Description: (§1) Bovine brain tubulin was purified as described previously. To evaluate the effects of the compounds on tubulin assembly in vitro [77], varying concentrations were preincubated with 10 μM tubulin in 0.8 M monosodium glutamate (pH 6.6) at 30 °C, and the reaction mixtures were then cooled to 0 °C. After addition of GTP, the mixtures were transferred to 0 °C cuvettes in Beckman Coulter (Brea, CA, USA) DU-7400/DU-7500 recording spectrophotometers equipped with electronic temperature controllers and were warmed to 30 °C, and the assembly of tubulin was observed turbidimetrically. […] Inhibition of colchicine binding to tubulin was measured as described before, except that the reaction mixtures contained 0.5 μM tubulin and 5 μM each of [^3H]colchicine and test compound. Only one DEAE-cellulose filter was used per sample, and filtration was via gravity.

[7] = system: acetylated histone H3 (Ac-H3K9) in HT-29 cells; assay: Western blot of acetylated histone H3 (Ac-H3K9) in HT-29 cells; format: cell-based, human; conditions: 10 µM, 6 h
Description: HT-29 cells were treated with selected compounds for 6 h at 10 µM, lysed, and then processed as previously described.
Antibodies directed against total histone H3 and its acetylated form (Ac-H3K9) were purchased from Cell Signaling Technology, Danvers, Massachusetts, while anti-vinculin antibody was purchased from Santa Cruz Biotechnology. Membranes were visualized using ECL select (GE Healthcare), and images were acquired using the iBright FL1500 Imaging System (Thermo Fisher Scientific, Waltham, MA, USA). Anti-vinculin (1:25,000, Santa Cruz Biotechnology, Dallas, TX, USA) was used as loading controls.

[8] = system: panel of five human cancer cell lines (HeLa, MDA-MB-231, A549, HT-29, MCF-7); assay: In vitro growth inhibition, range over the panel of five cancer cell lines; conditions: for IC50: read-out: IC50 values, range over the cancer cell line panel; for GI50: read-out: antiproliferative GI50 values, range over the five tumor lines
Description: All the cell lines were purchased from the American Type Culture Collection (ATCC, Manassas, VA, USA). Drug stock solutions were prepared for each compound by dissolving them in DMSO at 10 mM.
Cancer cells were seeded in tissue treated, flat bottom, 384-well plates (Corning, Corning, NY, USA) according to their optimal density, in 27 μL of complete medium per well, using a Microlab STAR 96-CORE liquid handling system (Hamilton Bonaduz, Bonaduz, Switzerland) as described previously [75]. Each compound was tested in a 6-points 2-fold dose–response curve, and each dose was tested in duplicate within each plate, in three independent experiments. The final concentration of DMSO in the wells never exceeded 0.1%, which was the maximum concentration.
Only plates with acceptable Z-prime quality metrics (Z′ > 0.6) were further analyzed for the drug screening. Raw data were normalized according to the following equation: cell viability (%) = (x − POS)/(NEG − POS) × 100, where x is the relative fluorescence units (RFU) collected from each single well, NEG is the mean of intraplate negative controls (DMSO, corresponding to 100% cell viability), and POS is the mean of intraplate positive controls (Bortezomib 1 μΜ, equal to 0% cell viability).

[9] = system: tubulin (colchicine site); assay: Inhibition of [3H]colchicine binding to tubulin; parameters: species or system bovine; conditions: tubulin 0.5 µM, [3H]colchicine 5 µM, tested compound 5 µM
Description: as §1

[10] = molecular target: T1, human recombinant HDAC6 (Homo sapiens, UniProt Q9UBN7); assay: HDAC isoform inhibition, fluorogenic substrate, HDAC6; format: biochemical; conditions: mean ± SE, read-out: IC50 (µM) hHDAC6
T1 construct: purchased BPS Bioscience 50056
T1 sequence (Q9UBN7 1-1215): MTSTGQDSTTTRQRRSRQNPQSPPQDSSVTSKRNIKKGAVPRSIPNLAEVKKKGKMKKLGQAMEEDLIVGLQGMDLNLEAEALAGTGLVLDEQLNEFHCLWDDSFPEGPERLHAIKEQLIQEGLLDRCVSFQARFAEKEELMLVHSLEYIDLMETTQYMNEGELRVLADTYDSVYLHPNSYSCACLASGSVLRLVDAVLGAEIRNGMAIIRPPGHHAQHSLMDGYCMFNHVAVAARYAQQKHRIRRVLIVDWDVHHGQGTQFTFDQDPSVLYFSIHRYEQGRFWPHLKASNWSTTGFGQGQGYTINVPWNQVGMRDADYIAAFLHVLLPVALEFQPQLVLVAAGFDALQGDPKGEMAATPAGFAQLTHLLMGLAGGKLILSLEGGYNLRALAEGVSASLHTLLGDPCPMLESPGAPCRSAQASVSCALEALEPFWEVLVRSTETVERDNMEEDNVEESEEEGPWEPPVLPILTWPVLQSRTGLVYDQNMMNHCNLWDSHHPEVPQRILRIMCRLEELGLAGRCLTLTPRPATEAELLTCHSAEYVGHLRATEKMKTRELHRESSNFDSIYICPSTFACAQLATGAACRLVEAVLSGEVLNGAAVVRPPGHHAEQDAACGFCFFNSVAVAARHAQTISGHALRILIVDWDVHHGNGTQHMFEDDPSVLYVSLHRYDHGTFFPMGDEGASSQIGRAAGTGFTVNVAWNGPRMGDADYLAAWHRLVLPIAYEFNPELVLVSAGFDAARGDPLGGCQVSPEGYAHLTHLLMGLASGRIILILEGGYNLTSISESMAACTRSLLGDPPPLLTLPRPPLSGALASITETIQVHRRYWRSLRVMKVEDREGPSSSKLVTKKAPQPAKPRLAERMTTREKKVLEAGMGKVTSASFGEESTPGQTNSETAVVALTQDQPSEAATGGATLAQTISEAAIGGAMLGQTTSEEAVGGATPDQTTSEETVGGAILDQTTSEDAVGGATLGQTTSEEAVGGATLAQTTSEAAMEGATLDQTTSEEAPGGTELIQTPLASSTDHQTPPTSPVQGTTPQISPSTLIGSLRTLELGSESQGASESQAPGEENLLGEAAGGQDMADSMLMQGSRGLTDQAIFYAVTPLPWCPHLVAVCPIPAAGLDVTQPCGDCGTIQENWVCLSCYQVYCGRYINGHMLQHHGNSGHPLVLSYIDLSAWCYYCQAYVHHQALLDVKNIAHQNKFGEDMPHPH
Description: (§2) Further experiments were also carried out to evaluate the inhibitory activities of test compounds on selected HDAC isoforms. […] Following an incubation of 15 min at RT, fluorescence was measured in an EnSight multimodal plate reader (PerkinElmer, Boston, MA, USA) with an excitation wavelength of 360 nm and an emission wavelength of 450 nm.

[11] = molecular target: T2, human recombinant HDAC1 (Homo sapiens, UniProt Q13547); assay: HDAC isoform inhibition, fluorogenic substrate, HDAC1; format: biochemical; conditions: mean ± SE, read-out: IC50 (µM) hHDAC1
T2 construct: purchased BPS Bioscience 50051
T2 sequence (Q13547 whole entry, canonical isoform): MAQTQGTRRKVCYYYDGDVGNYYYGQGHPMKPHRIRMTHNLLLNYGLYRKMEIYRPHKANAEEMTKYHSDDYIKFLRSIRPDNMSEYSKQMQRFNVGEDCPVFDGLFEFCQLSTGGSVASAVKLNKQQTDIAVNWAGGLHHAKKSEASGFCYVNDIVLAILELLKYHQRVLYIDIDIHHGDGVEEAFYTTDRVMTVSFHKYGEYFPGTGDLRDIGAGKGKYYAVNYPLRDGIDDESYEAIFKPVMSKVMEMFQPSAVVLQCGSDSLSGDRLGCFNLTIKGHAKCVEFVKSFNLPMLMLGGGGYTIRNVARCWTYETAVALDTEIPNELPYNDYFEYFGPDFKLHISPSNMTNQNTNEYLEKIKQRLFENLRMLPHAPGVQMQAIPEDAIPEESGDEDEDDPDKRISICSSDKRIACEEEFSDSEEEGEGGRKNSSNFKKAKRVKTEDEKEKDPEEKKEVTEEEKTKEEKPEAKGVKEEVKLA
Description: as §2

[12] = molecular target: T3, human recombinant HDAC8 (Homo sapiens, UniProt Q9BY41); assay: HDAC isoform inhibition, fluorogenic substrate, HDAC8; format: biochemical; conditions: mean ± SE, read-out: IC50 (µM) hHDAC8
T3 construct: purchased BPS Bioscience 50008
T3 sequence (Q9BY41 1-377): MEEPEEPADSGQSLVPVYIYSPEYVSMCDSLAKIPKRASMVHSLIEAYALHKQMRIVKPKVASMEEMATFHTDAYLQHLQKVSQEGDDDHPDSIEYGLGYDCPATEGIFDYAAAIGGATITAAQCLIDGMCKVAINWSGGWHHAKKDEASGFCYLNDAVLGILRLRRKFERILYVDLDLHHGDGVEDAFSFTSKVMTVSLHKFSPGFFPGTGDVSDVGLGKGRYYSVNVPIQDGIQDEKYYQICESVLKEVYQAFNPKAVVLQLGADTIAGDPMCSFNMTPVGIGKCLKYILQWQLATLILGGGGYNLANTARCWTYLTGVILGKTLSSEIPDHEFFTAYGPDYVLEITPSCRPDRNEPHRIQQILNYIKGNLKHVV
Description: as §2

[13] = molecular target: T4, human recombinant HDAC10 (Homo sapiens, UniProt Q969S8); assay: HDAC isoform inhibition, fluorogenic substrate, HDAC10; format: biochemical; conditions: mean ± SE, read-out: IC50 (µM) hHDAC10
T4 construct: purchased BPS Bioscience 50060
T4 sequence (Q969S8 1-669): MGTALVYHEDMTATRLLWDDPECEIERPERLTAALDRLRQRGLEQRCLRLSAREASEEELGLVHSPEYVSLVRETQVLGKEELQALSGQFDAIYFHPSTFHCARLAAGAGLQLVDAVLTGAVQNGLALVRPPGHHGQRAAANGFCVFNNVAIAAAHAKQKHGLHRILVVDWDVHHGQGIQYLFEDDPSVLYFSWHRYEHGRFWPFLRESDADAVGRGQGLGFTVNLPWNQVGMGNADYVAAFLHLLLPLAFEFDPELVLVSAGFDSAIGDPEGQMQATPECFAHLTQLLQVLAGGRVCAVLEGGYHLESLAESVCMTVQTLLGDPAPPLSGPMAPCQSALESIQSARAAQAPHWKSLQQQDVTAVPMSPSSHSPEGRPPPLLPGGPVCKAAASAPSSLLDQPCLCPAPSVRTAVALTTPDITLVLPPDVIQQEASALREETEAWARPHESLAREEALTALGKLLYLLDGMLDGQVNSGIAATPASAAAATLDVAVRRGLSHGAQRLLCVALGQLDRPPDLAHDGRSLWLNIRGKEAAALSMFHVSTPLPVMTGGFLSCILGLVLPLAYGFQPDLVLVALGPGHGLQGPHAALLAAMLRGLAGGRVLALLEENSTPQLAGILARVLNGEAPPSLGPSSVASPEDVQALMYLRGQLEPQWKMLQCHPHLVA
Description: as §2

IC50 [1]	IC50 [2]	IC50 [3]	IC50 [4]	IC50 [5]	IC50 [6]	Colchicine Binding % Inhibition ± SD [9]	IC50 [10]	IC50 [11]	IC50 [12]	IC50 [13]	melting point	Structure (SMILES)	acetylated histone H3 (Ac-H3K9) level, Western blot [7]	IC50 [8]	GI50 [8]
4 ± 0.01 nM	26.9 ± 1.74 nM	43.9 ± 0.55 nM	29 ± 0.01 nM	19 ± 1 nM	0.42 ± 0.07 µM	81 ± 4%	12.5 ± 0.8 µM	> 30 µM	> 30 µM	> 30 µM	170 to 172 °C	COc1cc(OC)cc(C(=O)c2oc3cc(OC)c(/C=C/C(=O)NO)cc3c2C)c1 [Compound 6c, (E)-3-(2-(3,5-Dimethoxybenzoyl)-6-methoxy-3-methylbenzofuran-5-yl)-N-hydroxyacrylamide]	–	–	0.004 to 0.044 µM
0.4 ± 0.04 nM	16.1 ± 0.01 nM	18.7 ± 0.72 nM	6.6 ± 0.96 nM	9.5 ± 0.7 nM	0.49 ± 0.1 µM	69 ± 0.1%	> 30 µM	14.1 ± 1 µM	> 30 µM	> 30 µM	268 to 270 °C	COc1cc2oc(C(=O)c3cc(OC)c(OC)c(OC)c3)c(C)c2cc1C#CC(=O)NO [Compound 11a, N-Hydroxy-3-[6-methoxy-3-methyl-2-(3,4,5-trimethoxybenzoyl)-1-benzofuran-5-yl] prop-2-ynamide]	–	0.0004 to 0.019 µM	–

Further lines, the compound ahead of its results:

Structure (SMILES)	IC50 [1]	IC50 [2]	IC50 [3]	IC50 [4]	IC50 [5]	IC50 [6]	Colchicine Binding % Inhibition ± SD [9]	IC50 [10]	IC50 [11]	IC50 [12]	IC50 [13]	melting point	acetylated histone H3 (Ac-H3K9) level, Western blot [7]	IC50 [8]	GI50 [8]
COc1ccc2c(C)c(C(=O)c3cc(OC)c(OC)c(OC)c3)oc2c1 [TR187, 2-(3′,4′,5′-trimethoxybenzoyl)-3-methyl-6-methoxy benzofuran, reference compound]	8.5 ± 0.11 nM	3.1 ± 0.01 nM	24 ± 0.44 nM	35.2 ± 0.82 nM	72 ± 4 nM	0.62 µM	–	–	–	–	–	–	does not show any inhibitory activity towards HDAC even at the cellular level	0.003 to 0.072 µM	–
COc1cc2oc(C(=O)c3cc(OC)c(OC)c(OC)c3)c(C)c2cc1/C=C/C(=O)NO [Compound 6a, (E)-N-Hydroxy-3-(6-methoxy-3-methyl-2-(3,4,5-trimethoxybenzoyl)benzofuran-5-yl)acrylamide]	5.2 ± 0.03 nM	5 ± 0.04 nM	23.5 ± 0.24 nM	7.5 ± 0.11 nM	7 ± 0.2 nM	–	–	–	–	> 30 µM	–	–	–	0.005 to 0.023 µM	0.005 to 0.023 µM
COc1cccc(C(=O)c2oc3cc(OC)c(/C=C/C(=O)NO)cc3c2C)c1 [Compound 6e, (E)-N-Hydroxy-3-(6-methoxy-2-(3-methoxybenzoyl)-3-methylbenzofuran-5-yl)acrylamide]	6 ± 0.05 nM	44.7 ± 3.12 nM	54.2 ± 2.03 nM	7.9 ± 0.02 nM	33 ± 6 nM	1.1 ± 0.1 µM	86 ± 1%	17.1 ± 1.2 µM	13.4 ± 0.9 µM	> 30 µM	> 30 µM	100 to 102 °C	–	–	–
